Source: patent publication US8461083B2, “Herbicidal compounds” (Syngenta Limited, priority 2008, dated 2013)

Legend:
Format in all cases: in vivo
[1] = tested on: Alopecurus myosuroides (ALOMY); test: Post-emergence herbicidal glasshouse test; conditions: post-emergence (sprayed after 8 days cultivation), evaluated after 13 days, 100=total damage to plant, 0=no damage to plant; for POST Application ALOMY, damage to plant: 1000 g/ha; for pest or weed control at 1000 g/ha: Alopecurus myosuroides, 312 h, read-out: POST Application ALOMY, damage to plant
How it was run: (§1)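 Rates of 1000 g/ha are applied as an acetone/water (50:50) spray with 0.5% Tween 20 to soil-sown pots, pre-emergence at day 1 or post-emergence at day 8. Percent damage is assessed after 13 days.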

[2] = tested on: Amaranthus retoflexus (AMARE); test: Post-emergence herbicidal glasshouse test; conditions: post-emergence (sprayed after 8 days cultivation), evaluated after 13 days, 100=total damage to plant, 0=no damage to plant; for POST Application AMARE, damage to plant: 1000 g/ha; for pest or weed control at 1000 g/ha: Amaranthus retroflexus, 312 h, read-out: POST Application AMARE, damage to plant
How it was run: as §1

[3] = tested on: Echinochloa crus-galli (ECHCG); test: Post-emergence herbicidal glasshouse test; conditions: post-emergence (sprayed after 8 days cultivation), evaluated after 13 days, 100=total damage to plant, 0=no damage to plant; for POST Application ECHCG, damage to plant: 1000 g/ha; for pest or weed control at 1000 g/ha: Echinochloa crus-galli, 312 h, read-out: POST Application ECHCG, damage to plant
How it was run: as §1

Setaria faberi (SETFA) [4] = test: Post-emergence herbicidal glasshouse test; conditions: post-emergence (sprayed after 8 days cultivation), evaluated after 13 days, 100=total damage to plant, 0=no damage to plant; for POST Application SETFA, damage to plant: 1000 g/ha; for pest or weed control at 1000 g/ha: Setaria faberi, 312 h, read-out: POST Application SETFA, damage to plant
How it was run: as §1

Solanum nigrum (SOLNI) [5] = test: Post-emergence herbicidal glasshouse test; conditions: post-emergence (sprayed after 8 days cultivation), evaluated after 13 days, 100=total damage to plant, 0=no damage to plant; for POST Application SOLNI, damage to plant: 1000 g/ha; for pest or weed control at 1000 g/ha: Solanum nigrum, 312 h, read-out: POST Application SOLNI, damage to plant
How it was run: as §1

[6] = tested on: Alopecurus myosuroides (ALOMY); test: Pre-emergence herbicidal glasshouse test; conditions: pre-emergence (sprayed after one day cultivation), evaluated after 13 days, 100=total damage to plant, 0=no damage to plant; for PRE Application ALOMY, damage to plant: 1000 g/ha; for pest or weed control at 1000 g/ha: Alopecurus myosuroides, 312 h, read-out: PRE Application ALOMY, damage to plant
How it was run: as §1

[7] = tested on: Amaranthus retoflexus (AMARE); test: Pre-emergence herbicidal glasshouse test; conditions: pre-emergence (sprayed after one day cultivation), evaluated after 13 days, 100=total damage to plant, 0=no damage to plant; for PRE Application AMARE, damage to plant: 1000 g/ha; for pest or weed control at 1000 g/ha: Amaranthus retroflexus, 312 h, read-out: PRE Application AMARE, damage to plant
How it was run: as §1

[8] = tested on: Echinochloa crus-galli (ECHCG); test: Pre-emergence herbicidal glasshouse test; conditions: pre-emergence (sprayed after one day cultivation), evaluated after 13 days, 100=total damage to plant, 0=no damage to plant; for PRE Application ECHCG, damage to plant: 1000 g/ha; for pest or weed control at 1000 g/ha: Echinochloa crus-galli, 312 h, read-out: PRE Application ECHCG, damage to plant
How it was run: as §1

Setaria faberi (SETFA) [9] = test: Pre-emergence herbicidal glasshouse test; conditions: pre-emergence (sprayed after one day cultivation), evaluated after 13 days, 100=total damage to plant, 0=no damage to plant; for PRE Application SETFA, damage to plant: 1000 g/ha; for pest or weed control at 1000 g/ha: Setaria faberi, 312 h, read-out: PRE Application SETFA, damage to plant
How it was run: as §1

Solanum nigrum (SOLNI) [10] = test: Pre-emergence herbicidal glasshouse test; conditions: pre-emergence (sprayed after one day cultivation), evaluated after 13 days, 100=total damage to plant, 0=no damage to plant; for PRE Application SOLNI, damage to plant: 1000 g/ha; for pest or weed control at 1000 g/ha: Solanum nigrum, 312 h, read-out: PRE Application SOLNI, damage to plant
How it was run: as §1

Structure (SMILES): N#CCn1c(=O)ccc2cc(C(=O)C3C(=O)CCCC3=O)c(C(F)(F)F)nc21 [Compound 2.3]
- POST Application ALOMY, damage to plant [1]: 20
- POST Application AMARE, damage to plant [2]: 90
- POST Application ECHCG, damage to plant [3]: 80
- POST Application SETFA, damage to plant (Setaria faberi (SETFA) [4]): 90
- POST Application SOLNI, damage to plant (Solanum nigrum (SOLNI) [5]): 90
- PRE Application ALOMY, damage to plant [6]: 20
- PRE Application AMARE, damage to plant [7]: 90
- PRE Application ECHCG, damage to plant [8]: 80
- PRE Application SETFA, damage to plant (Setaria faberi (SETFA) [9]): 60
- PRE Application SOLNI, damage to plant (Solanum nigrum (SOLNI) [10]): 90

Structure (SMILES): O=C1CCCC(=O)C1C(=O)c1cc2ccc(=O)n(CC3CC3)c2nc1C(F)(F)F [Compound 2.9, 2-{8-(cyclopropylmethyl)-7-oxo-7,8-dihydro-2-trifluoromethyl-[1,8]-naphthyridine-3-carbony}-cyclohexane-1,3-dione]
- POST Application ALOMY, damage to plant [1]: 90
- POST Application AMARE, damage to plant [2]: 100
- POST Application ECHCG, damage to plant [3]: 90
- POST Application SETFA, damage to plant (Setaria faberi (SETFA) [4]): 90
- POST Application SOLNI, damage to plant (Solanum nigrum (SOLNI) [5]): 90
- PRE Application ALOMY, damage to plant [6]: 60
- PRE Application AMARE, damage to plant [7]: 60
- PRE Application ECHCG, damage to plant [8]: 100
- PRE Application SETFA, damage to plant (Setaria faberi (SETFA) [9]): 90
- PRE Application SOLNI, damage to plant (Solanum nigrum (SOLNI) [10]): 90

Structure (SMILES): O=C1CCCC(=O)C1C(=O)c1cc2ccc(=O)n(CC(F)F)c2nc1C(F)(F)F [Compound 2.4, 2-{8-(2,2-difluoroethyl)-7-oxo-7,8-dihydro-2-trifluoromethyl-[1,8]-naphthyridine-3-carbony}-cyclohexane-1,3-dione]
- POST Application ALOMY, damage to plant [1]: 60
- POST Application AMARE, damage to plant [2]: 60
- POST Application ECHCG, damage to plant [3]: 70
- POST Application SETFA, damage to plant (Setaria faberi (SETFA) [4]): 80
- POST Application SOLNI, damage to plant (Solanum nigrum (SOLNI) [5]): 90
- PRE Application ALOMY, damage to plant [6]: 40
- PRE Application AMARE, damage to plant [7]: 90
- PRE Application ECHCG, damage to plant [8]: 90
- PRE Application SETFA, damage to plant (Setaria faberi (SETFA) [9]): 70
- PRE Application SOLNI, damage to plant (Solanum nigrum (SOLNI) [10]): 90

Structure (SMILES): O=C1CCCC(=O)C1C(=O)c1cc2ccc(=O)n(C3CCCC3)c2nc1C(F)(F)F [Compound 2.8, 2-{8-cyclopentyl-7-oxo-7,8-dihydro-2-trifluoromethyl-[1,8]-naphthyridine-3-carbony}-cyclohexane-1,3-dione]
- pest or weed control at 1000 g/ha [1]: 70%
- pest or weed control at 1000 g/ha [2]: 70%
- pest or weed control at 1000 g/ha [3]: 80%
- pest or weed control at 1000 g/ha (Setaria faberi (SETFA) [4]): 90%
- pest or weed control at 1000 g/ha (Solanum nigrum (SOLNI) [5]): 90%
- pest or weed control at 1000 g/ha [6]: 30%
- pest or weed control at 1000 g/ha [7]: 80%
- pest or weed control at 1000 g/ha [8]: 70%
- pest or weed control at 1000 g/ha (Setaria faberi (SETFA) [9]): 70%
- pest or weed control at 1000 g/ha (Solanum nigrum (SOLNI) [10]): 90%

Structure (SMILES): O=C1CCCC(=O)C1C(=O)c1cc2ccc(C(F)F)nc2nc1C(F)(F)F [Compound 1.12]
- pest or weed control at 1000 g/ha [1]: 100%
- pest or weed control at 1000 g/ha [2]: 60%
- pest or weed control at 1000 g/ha [3]: 100%
- pest or weed control at 1000 g/ha (Setaria faberi (SETFA) [4]): 100%
- pest or weed control at 1000 g/ha (Solanum nigrum (SOLNI) [5]): 100%
- pest or weed control at 1000 g/ha [6]: 90%
- pest or weed control at 1000 g/ha [7]: 100%
- pest or weed control at 1000 g/ha [8]: 100%
- pest or weed control at 1000 g/ha (Setaria faberi (SETFA) [9]): 100%
- pest or weed control at 1000 g/ha (Solanum nigrum (SOLNI) [10]): 100%

Structure (SMILES): CCOc1ccc2cc(C(=O)C3=C(OC(=O)C(C)C)CCCC3=O)c(C(F)(F)F)nc2n1 [Compound 4.19, isobutyric acid 2-(7-ethoxy-2-trifluoromethyl-[1,8]-naphthyridine-3-carbonyl)-3-oxo-cyclohex-1-enyl ester]
- pest or weed control at 1000 g/ha [1]: 80%
- pest or weed control at 1000 g/ha [2]: 70%
- pest or weed control at 1000 g/ha [3]: 80%
- pest or weed control at 1000 g/ha (Setaria faberi (SETFA) [4]): 90%
- pest or weed control at 1000 g/ha (Solanum nigrum (SOLNI) [5]): 90%
- pest or weed control at 1000 g/ha [6]: 70%
- pest or weed control at 1000 g/ha [7]: 100%
- pest or weed control at 1000 g/ha [8]: 100%
- pest or weed control at 1000 g/ha (Setaria faberi (SETFA) [9]): 100%
- pest or weed control at 1000 g/ha (Solanum nigrum (SOLNI) [10]): 100%
